Test results published in paper PMC10766610, “DCAF1-based PROTACs with activity against clinically validated targets overcoming intrinsic- and acquired-degrader resistance” (Nature Communications, 2024).
Like-named read-outs stand apart in the source and are kept apart here.

Experiments:
CSK = biological target: T1, CSK (Homo sapiens, UniProt P41240); assay: Immunoblot of CSK in HEK293T cells; type: cell-based; conditions: 6 h
T1 construct: host or cells: HEK293T
Experimental: (§1) Whole cell lysates for immunoblotting were prepared by pelleting cells at 4 °C (300 g) for 3 min. Cell pellets were then washed 1x with PBS and resuspended in RIPA lysis buffer (VWR, cat # 97063-270) supplemented with protease (Thermo Scientific, cat # A32955) and phosphatase (Thermo Scientific, cat # A32957) inhibitor tablets. Lysates were clarified at 16,000 × g for 15 min at 4 °C prior to quantification by Lowry assay (Bio-Rad cat # 5000113 and cat # 5000114). Whole-cell lysates were loaded into 4–20% Criterion TGX Precast 18 well gels (Bio-Rad, cat # 5671094) and separated by electrophoreses at 120 V for 1 h. The gels were transferred to a nitrocellulose membrane using the Trans-Blot Turbo (Bio-Rad) for 7 min and then blocked for 1 h at room temperature in Odyssey blocking buffer (LICOR Biosciences, cat # 927-50000). Membranes were probed with the appropriate primary antibodies (diluted 1:1000) overnight at 4 °C in 20% Odyssey blocking buffer in 1x TBST. Membranes were washed three times with 1x TBST (5 min per wash), and then incubated with IRDye goat anti-mouse (LICOR, cat # 926-32210) or goat anti-rabbit (LICOR, cat # 926-32211) secondary antibody diluted 1:10,000 in 20% Odyssey blocking buffer for 1 h at room temperature. After three 5-min washes with 1x TBST, the immunoblots were visualized using the ODYSSEY Infrared Imaging System (LICOR). […]

LYN = biological target: T2, LYN (Homo sapiens, UniProt P07948); assay: Immunoblot of LYN in HEK293T cells; type: cell-based; conditions: 6 h
T2 construct: host or cells: HEK293T
Experimental: as §1

BRD9 = biological target: T3, BRD9 (Homo sapiens, UniProt Q9H8M2); assay: BRD9-HiBiT protein abundance luminescence assay in HEK293 cells; conditions: 2 h
T3 sequence (Q9H8M2 1-597): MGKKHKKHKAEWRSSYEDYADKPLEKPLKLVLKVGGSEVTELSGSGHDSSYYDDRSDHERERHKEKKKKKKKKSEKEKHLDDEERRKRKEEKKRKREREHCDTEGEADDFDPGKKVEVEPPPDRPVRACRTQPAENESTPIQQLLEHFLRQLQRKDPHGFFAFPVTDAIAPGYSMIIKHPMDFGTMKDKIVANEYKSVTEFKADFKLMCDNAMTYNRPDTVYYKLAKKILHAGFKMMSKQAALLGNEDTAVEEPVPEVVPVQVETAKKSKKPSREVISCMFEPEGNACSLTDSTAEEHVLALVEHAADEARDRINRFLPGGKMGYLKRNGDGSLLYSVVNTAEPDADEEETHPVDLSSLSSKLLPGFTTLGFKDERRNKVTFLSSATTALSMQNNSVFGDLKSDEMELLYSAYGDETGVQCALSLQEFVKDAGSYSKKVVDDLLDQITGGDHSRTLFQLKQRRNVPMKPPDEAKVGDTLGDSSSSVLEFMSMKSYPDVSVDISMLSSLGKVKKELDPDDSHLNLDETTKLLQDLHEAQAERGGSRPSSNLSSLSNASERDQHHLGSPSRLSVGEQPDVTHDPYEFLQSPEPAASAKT
Excerpt: HEK293/BRD9-HiBiT pools (PROMEGA # CS3023120) and HEK293/BRD7-HiBiT pools (PROMEGA # CS3023124) were purchased from Promega. We performed clonal selection for HEK293/BRD9-HiBiT cell line using single-cell sorting and screening for HiBiT expression using Nano-Glo HiBiT Lytic Detection System (Promega # N3030). The HEK293/BRD9-HiBiT clone and HEK293/BRD7-HiBiT pool to perform standard HiBiT assays.

[1] = biological target: DCAF1(WDR) + BRD9-BD(130-250) (Homo sapiens, UniProt Q9H8M2+Q9Y4B6, E1398S); assay: SPR ternary binding assay, immobilized DCAF1(WDR), BRD9-BD(130-250) in buffer
Sequence of DCAF1(WDR) + BRD9-BD(130-250) (Q9Y4B6 1073-1399 E1398S, one chain of several): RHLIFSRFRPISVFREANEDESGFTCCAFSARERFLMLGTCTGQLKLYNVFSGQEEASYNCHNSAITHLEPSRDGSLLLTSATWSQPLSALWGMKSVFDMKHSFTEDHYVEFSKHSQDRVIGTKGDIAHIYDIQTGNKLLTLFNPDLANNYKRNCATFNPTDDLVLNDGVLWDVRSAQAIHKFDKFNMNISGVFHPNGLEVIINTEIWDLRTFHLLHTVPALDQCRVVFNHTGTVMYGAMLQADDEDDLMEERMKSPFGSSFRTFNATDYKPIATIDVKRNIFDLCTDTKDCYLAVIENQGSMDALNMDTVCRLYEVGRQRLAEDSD
Experimental: Surface plasmon resonance (SPR) experiments were performed on Biacore T200 and 8 K+ instruments (Cytiva). […] Binary complexes were analyzed with a kinetic 1:1 fit model to obtain KD values. The fit of apparent steady state RU intensities of the ternary complexes was performed using a bell-shaped curve algorithm implemented in Graphpad Prism. […] Residence times (t1/2) were calculated by the inversion of the off-rate.

T2 sequence (P07948 whole entry): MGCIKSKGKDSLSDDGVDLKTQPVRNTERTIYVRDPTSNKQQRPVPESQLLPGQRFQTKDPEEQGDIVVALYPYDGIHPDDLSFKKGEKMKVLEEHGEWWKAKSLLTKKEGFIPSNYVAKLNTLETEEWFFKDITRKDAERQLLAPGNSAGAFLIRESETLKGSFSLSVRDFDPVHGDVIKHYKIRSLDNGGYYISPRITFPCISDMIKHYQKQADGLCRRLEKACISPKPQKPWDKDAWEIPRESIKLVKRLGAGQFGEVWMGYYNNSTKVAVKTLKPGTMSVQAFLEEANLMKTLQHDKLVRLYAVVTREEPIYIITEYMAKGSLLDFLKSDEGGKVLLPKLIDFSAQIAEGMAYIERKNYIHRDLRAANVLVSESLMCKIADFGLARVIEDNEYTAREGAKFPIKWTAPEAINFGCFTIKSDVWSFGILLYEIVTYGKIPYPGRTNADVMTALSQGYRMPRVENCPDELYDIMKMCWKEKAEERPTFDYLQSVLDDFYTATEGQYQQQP
T1 sequence (P41240 whole entry): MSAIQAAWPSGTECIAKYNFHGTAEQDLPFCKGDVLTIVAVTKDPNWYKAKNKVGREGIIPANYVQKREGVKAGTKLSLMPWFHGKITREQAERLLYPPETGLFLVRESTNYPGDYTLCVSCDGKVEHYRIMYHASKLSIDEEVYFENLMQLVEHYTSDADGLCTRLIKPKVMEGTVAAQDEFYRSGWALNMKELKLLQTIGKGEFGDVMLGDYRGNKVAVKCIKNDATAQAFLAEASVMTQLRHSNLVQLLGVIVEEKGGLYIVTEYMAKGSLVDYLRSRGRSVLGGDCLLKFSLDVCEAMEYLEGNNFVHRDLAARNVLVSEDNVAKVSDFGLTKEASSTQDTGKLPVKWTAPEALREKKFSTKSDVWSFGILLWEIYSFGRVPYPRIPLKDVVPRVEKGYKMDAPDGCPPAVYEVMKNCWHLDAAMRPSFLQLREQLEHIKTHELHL

SMILES	CSK protein levels (CSK)	LYN protein levels (LYN)	DC50 (BRD9; read-out: DC50 BRD9-HiBiT, BRD9-HiBiT/CAS9/FF cells) [nM]	DC50 (BRD9; read-out: DC50 BRD9, HEK293/BRD9-HiBiT cells) [nM]	Kd ([1]; Kd1, apparent KD of first sigmoidal transition, in the presence of 0.2 µM BRD9-BD(130-250)) [µM]	Kd ([1]; SPR KD [μM], + BRD9, with additional BRD9-BD(130-250)) [µM]	Kd ([1]; read-out: Kd2, apparent KD of second sigmoidal transition, in the presence of 0.2 µM BRD9-BD(130-250)) [µM]
Cc1nc(Nc2ncc(C(=O)Nc3c(C)cccc3Cl)s2)cc(N2CCC(OC3CCN(CCCCCCCC(=O)N4CCN(c5ccc6c(NCCN)nc(C7(c8ccc(Cl)cc8)CCCCC7)nc6c5)CC4)CC3)CC2)n1 [DDa-1]	significant reduction in protein levels	not					
COc1cc(-c2cn(C)c(=O)c3cnccc23)c(OC)cc1CN1CCC(OCCCCCC(=O)N2CCN(c3ccc4c(NCCN)nc(C5(c6ccc(Cl)cc6)CCCCC5)nc4c3)CC2)CC1 [DBr-1]			193	90	0.02	0.005	6.11
